The results in this text go back to patent publication US12134620B2 (ARAXES PHARMA LLC, priority 2018, dated 2024).

The experiment has as its target T1, KRAS G12C 1-169, his-tagged protein, GDP-loaded (Homo sapiens, UniProt P01116, G12C).
T1 construct: KRAS G12C 1-169, his-tagged protein, GDP-loaded; His tag
Briefly: Biochemical assay: covalent modification of KRAS G12C, analysed by mass spectrometry (RapidFire/TOF or Q-Exactive). Note: time not given here. In kind it is binding. To be noted: Modification activity, modification percentage from MS peak intensities. Put shortly: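 Covalent adduct formation was quantified by intact-protein mass spectrometry, either TOF or C4 LC-Q Exactive Plus, as percent modified versus unmodified protein after deconvolution. Compounds at 8 or 32 μM final were incubated with 0.5 or 2 μM GDP-bound KRAS G12C(1-169)-His in Hepes/NaCl/MgCl2 buffer before acid quench.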
As to `C=CC(=O)N1CC2(CCN(c3nc(OCc4cc(C(F)(F)F)ccn4)nc(-c4c(C)ccc5[nH]ncc45)c3C#N)C2)C1` [Compound I-174, 4-(2-acryloyl-2,6-diazaspiro[3.4]octan-6-yl)-6-(5-methyl-1H-indazol-4-yl)-2-((4-(trifluoromethyl)pyri-din-2-yl)methoxy)pyrimidine-5-carbonitrile], the Binding % entry is reported as “++ (++ indicates binding activity from 50 to 85%)”. On to `C=CC(=O)N1CC2(CCN(c3nc(N4CC(N(C)C)C4)cc(-c4c(C)ccc5[nH]ncc45)c3C#N)C2)C1` [Compound I-187, 2-(2-acryloyl-2,6-diazaspiro[3.4]octan-6-yl)-6-(3-(dimethylamino)azeti-din-1-yl)-4-(5-methyl-1H-indazol-4-yl)nicotinonitrile], for which the Binding % entry is “+ (+ indicates binding activity greater than 0% and up to 50%)”. `C=CC(=O)N1CC2(CCN(c3ncnc(-c4c(C)ccc5[nH]ncc45)c3C)C2)C1` [Compound I-257, 1-(6-(5-methyl-6-(5-methyl-1H-indazol-4-yl)pyrimidin-4-yl)-2,6-diazaspiro[3.4]octan-2-yl)prop-2-en-1-one]: the Binding % entry was “+ (+ indicates binding activity greater than 0% and up to 50%)”. As for `C=CC(=O)N1CC2(CCN(c3ncnc(N4CCCC4CO)c3C#N)C2)C1` (stereo not drawn) [Compound I-246, 4-(2-acryloyl-2,6-diazaspiro[3.4]octan-6-yl)-6-(2-(hydroxymethyl)pyrro-lidin-1-yl)pyrimidine-5-carbonitrile], the entry is “+ (+ indicates binding activity greater than 0% and up to 50%)”; as for `Cc1ccc2[nH]ncc2c1-c1nc(N2CCOCC2)nc(N2CCC3(CN(C(=O)/C=C/CN(C)C)C3)C2)c1C#N` [Compound I-85, (E)-4-(2-(4-(dimethylamino)but-2-enoyl)-2,6-diazaspiro[3.4]octan-6-yl)-6-(5-methyl-1H-indazol-4-yl)-2-morpholinopyrimidine-5-carbonitrile], “+ (+ indicates binding activity greater than 0% and up to 50%)”; as for `C=CC(=O)N1CC2(CCN(c3cncc(-c4c(C)ccc5[nH]ncc45)c3C#N)C2)C1` [Compound I-256, 3-(2-acryloyl-2,6-diazaspiro[3.4]octan-6-yl)-5-(5-methyl-1H-indazol-4-yl)isonicotinonitrile], “+++ (+++ indicates binding activity greater than 85%)”. As for `C=CC(=O)N1CC2(CCN(c3ncnc(-c4c(C)ccc5[nH]ncc45)c3C#N)C2)C1` [Compound I-231, 4-(2-acryloyl-2,6-diazaspiro[3.4]octan-6-yl)-6-(5-methyl-1H-indazol-4-yl)pyrimidine-5-carbonitrile], the entry is “+ (+ indicates binding activity greater than 0% and up to 50%)”; as for `C=CC(=O)N1CC2(CCN(c3nc(N4Cc5ccccc5C4)nc(-c4c(C)ccc5[nH]ncc45)c3C#N)C2)C1` [Compound I-24, 4-(2-acryloyl-2,6-diazaspiro[3.4]octan-6-yl)-2-(isoindolin-2-yl)-6-(5-methyl-1H-indazol-4-yl)pyrimidine-5-carbonitrile], “++ (++ indicates binding activity from 50 to 85%)”; as for `C=CC(=O)N1CC2(CCN(c3nc(OC[C@@H]4CCCN4C)nc(-c4cccc5ccccc45)c3C#N)C2)C1` [Compound I-101, (S)-4-(2-acryloyl-2,6-diazaspiro[3.4]octan-6-yl)-2-((1-methylpyrrolidin-2-yl)methoxy)-6-(naphthalen-1-yl)pyrimidine-5-carbonitrile], “+ (+ indicates binding activity greater than 0% and up to 50%)”. Turning to `C=CC(=O)N1CC2(CCN(c3nc(OCc4cccc(C(F)(F)F)c4)nc(-c4c(C)ccc5cnn(C)c45)c3C#N)C2)C1` [Compound I-158, 4-(2-acryloyl-2,6-diazaspiro[3.4]octan-6-yl)-6-(1,6-dimethyl-1H-indazol-7-yl)-2-((3-(trifluoromethyl)ben-zyl)oxy)pyrimidine-5-carbonitrile], the Binding % entry is recorded as “++ (++ indicates binding activity from 50 to 85%)”. As for `C=CC(=O)N1CC2(CCN(c3nc(N4CC5CCC(C4)N5C)nc(-c4c(C)ccc5[nH]ncc45)c3C#N)C2)C1` [Compound I-47, 4-(2-acryloyl-2,6-diazaspiro[3.4]octan-6-yl)-6-(5-methyl-1H-indazol-4-yl)-2-(8-methyl-3,8-diazabicyclo[3.2.1]oc-tan-3-yl)pyrimidine-5-carbonitrile], the entry is “+++ (+++ indicates binding activity greater than 85%)”; as for `C=CC(=O)N1CC2(CCN(c3ncc(C#N)c(-c4c(C)ccc5[nH]ncc45)n3)C2)C1` [Compound I-145, 2-(2-acryloyl-2,6-diazaspiro[3.4]octan-6-yl)-4-(5-methyl-1H-indazol-4-yl)pyrimidine-5-carbonitrile], “+ (+ indicates binding activity greater than 0% and up to 50%)”; as for `C=CC(=O)N1CC2(CCN(c3nc(OC[C@@H]4CCCN4C)nc(NCc4cccnc4)c3C#N)C2)C1` [Compound I-18, (S)-4-(2-acryloyl-2,6-diazaspiro[3.4]octan-6-yl)-2-((1-methylpyrrolidin-2-yl)methoxy)-6-((pyridin-3-ylmethyl)amino)pyri-midine-5-carbonitrile], “+ (+ indicates binding activity greater than 0% and up to 50%)”.

For the molecule `C=CC(=O)N1CC2(CCN(c3nc(N4CCC(N5CCN(C)CC5)CC4)nc(-c4c(C)ccc5cnn(C)c45)c3C#N)C2)C1` [Compound I-160, 4-(2-acryloyl-2,6-diazaspiro[3.4]octan-6-yl)-6-(1,6-dimethyl-1H-indazol-7-yl)-2-(4-(4-methylpiperazin-1-yl)piperidin-1-yl)pyrimidine-5-carbonitrile], the Binding % result is on record as “++ (++ indicates binding activity from 50 to 85%)”. With `C=CC(=O)N1CC2(CCN(c3ncnc(-c4c(C)ccc5[nH]ncc45)c3OC)C2)C1` [Compound I-243, 1-(6-(5-methoxy-6-(5-methyl-1H-indazol-4-yl)pyrimidin-4-yl)-2,6-diazaspiro[3.4]octan-2-yl)prop-2-en-1-one], the Binding % result is “+ (+ indicates binding activity greater than 0% and up to 50%)”.

`C=CC(=O)N1CC2(CCN(c3nc(OC[C@@H]4CCCN4C)nc(-c4cnn(CCO)c4)c3C#N)C2)C1` [Compound I-35, (S)-4-(2-acryloyl-2,6-diazaspiro[3.4]octan-6-yl)-6-(1-(2-hydroxyethyl)-1H-pyrazol-4-yl)-2-((1-methylpyrrolidin-2-yl)methoxy)pyrimidine-5-carbonitrile]: the Binding % entry was “+ (+ indicates binding activity greater than 0% and up to 50%)”. For `C=CC(=O)N1CC2(CCN(c3nc(OC[C@@H]4CCCN4C)nc(-c4cccc5c4OCCO5)c3C#N)C2)C1` [Compound I-26, (S)-4-(2-acryloyl-2,6-diazaspiro[3.4]octan-6-yl)-6-(2,3-dihydrobenzo[b][1,4]dioxin-5-yl)-2-((1-methylpyrrolidin-2-yl)methoxy)pyrimidine-5-carbonitrile], the Binding % result is “+ (+ indicates binding activity greater than 0% and up to 50%)”. As for `C=CC(=O)N1CC2(CCN(c3nc(N4CCOCC4)nc(-c4c(C)ccc5[nH]nc(C)c45)c3C#N)C2)C1` [Compound I-96, 4-(2-acryloyl-2,6-diazaspiro[3.4]octan-6-yl)-6-(3,5-dimethyl-1H-indazol-4-yl)-2-morpholinopyrimidine-5-carbonitrile], the Binding % result is on record as “+++ (+++ indicates binding activity greater than 85%)”. For `C=CC(=O)N1CC2(CCN(c3nc(N4CCOCC4)nc(-c4c(F)ccc5cnn(C)c45)c3C#N)C2)C1` [Compound I-119, 4-(2-acryloyl-2,6-diazaspiro[3.4]octan-6-yl)-6-(6-fluoro-1-methyl-1H-indazol-7-yl)-2-morpholinopyrimidine-5-carbontrile], the Binding % result is given as “++ (++ indicates binding activity from 50 to 85%)”. Take `C=C(C)C(=O)N1CC2(CCN(c3nc(N4CCOCC4)nc(-c4c(C)ccc5[nH]ncc45)c3C#N)C2)C1` [Compound I-192, 4-(2-methacryloyl-2,6-diazaspiro[3.4]octan-6-yl)-6-(5-methyl-1H-indazol-4-yl)-2-morpholinopyrimidine-5-carbonitrile]: the Binding % result was “+ (+ indicates binding activity greater than 0% and up to 50%)”. For `C=CC(=O)N1CC2(CCN(c3nc(-c4c(C)ccc5[nH]ncc45)cc(N4CC(N(C)C)C4)n3)C2)C1` [Compound I-143, 1-(6-(4-(3-(dimethylamino)azeti-din-1-yl)-6-(5-methyl-1H-indazol-4-yl)pyrimidin-2-yl)-2,6-diazaspiro[3.4]octan-2-yl)prop-2-en-1-one], the Binding % entry was “+ (+ indicates binding activity greater than 0% and up to 50%)”. Turning to `C=CC(=O)N1CC2(CCN(c3nc(OCc4ccnnc4)nc(-c4c(C)ccc5[nH]ncc45)c3C#N)C2)C1` [Compound I-173, 4-(2-acryloyl-2,6-diazaspiro[3.4]octan-6-yl)-6-(5-methyl-1H-indazol-4-yl)-2-(pyridazin-4-ylmethoxy)pyrimidine-5-carbonitrile], the Binding % entry is “++ (++ indicates binding activity from 50 to 85%)”. On to `C=CC(=O)N1CC2(CCN(c3c(OCCCN(C)C)ncc(-c4c(C)ccc5[nH]ncc45)c3C#N)C2)C1` [Compound I-218, 3-(2-acryloyl-2,6-diazaspiro[3.4]octan-6-yl)-2-(3-(dimethylamino)pro-poxy)-5-(5-methyl-1H-indazol-4-yl)isonicotinonitrile], for which the Binding % result is recorded as “++ (++ indicates binding activity from 50 to 85%)”. As for `C=CC(=O)N1CC2(CCN(c3nc(N4CCN(C)CC4)nc(-c4c(C)ccc5[nH]ncc45)c3C#N)C2)C1` [Compound I-30, 4-(2-acryloyl-2,6-diazaspiro[3.4]octan-6-yl)-6-(5-methyl-1H-indazol-4-yl)-2-(4-methylpiperazin-1-yl)pyrimidine-5-carbonitrile], the entry is “+++ (+++ indicates binding activity greater than 85%)”.
